Measurements published in PMC11899342, “Novel Triazeneindole Antibiotics: Synthesis and Hit-to-Lead Optimization” (International Journal of Molecular Sciences, 2025).

Tested on: MRSA clinical isolates
Test: Antibiotic susceptibility profile of MRSA clinical isolates (EUCAST breakpoints)
Type: cell-based, Staphylococcus aureus
Text: Clinical MRSA isolates with multidrug resistance were obtained from the collection of the Research Institute of Antimicrobial Chemotherapy, Smolensk State Medical Academy.

Structure (SMILES): CN(C)[C@@H]1C(O)=C(C(N)=O)C(=O)[C@@]2(O)C(O)=C3C(=O)c4c(O)cccc4[C@@](C)(O)[C@H]3C[C@@H]12 [TET, tetracycline]
- Drug sensibility profile (MRSA strain 1): R
- Drug sensibility profile (MRSA strain 2): R
- Drug sensibility profile (MRSA strain 3): S
- Drug sensibility profile (MRSA strain 4): S
- Drug sensibility profile (MRSA strain 5): S
- Drug sensibility profile (MRSA strain 6): S
- Drug sensibility profile (MRSA strain 7): R
- Drug sensibility profile (MRSA strain 8): R
- Drug sensibility profile (MRSA strain 9): R
- Drug sensibility profile (MRSA strain 10): S
- Drug sensibility profile (MRSA strain 12): R
- Drug sensibility profile (MRSA strain 13): R
- Drug sensibility profile (MRSA strain 14): S
- Drug sensibility profile (MRSA strain 15): R
- Drug sensibility profile (MRSA strain 16): S
- Drug sensibility profile (MRSA strain 17): S
- Drug sensibility profile (MRSA strain 18): S
- Drug sensibility profile (MRSA strain 21): R
- Drug sensibility profile (MRSA strain 23): S
- Drug sensibility profile (MRSA strain 24): S
- Drug sensibility profile (MRSA strain 25): S
- Drug sensibility profile (MRSA strain 26): S S S S S S S
- Drug sensibility profile (MRSA strain 27): R
- Drug sensibility profile (MRSA strain 28): R
- Drug sensibility profile (MRSA strain 29): S
- Drug sensibility profile (MRSA strain 30): S
- Drug sensibility profile (MRSA strain 31): S
- Drug sensibility profile (MRSA strain 34): S
- Drug sensibility profile (MRSA strain 35): S
- Drug sensibility profile (MRSA strain 36): S S S S S S S
- Drug sensibility profile (MRSA strain 40): R
- Drug sensibility profile (MRSA strain 41): R
- Drug sensibility profile (MRSA strain 42): S
- Drug sensibility profile (MRSA strain 43): S
- Drug sensibility profile (MRSA strain 44): S
- Drug sensibility profile (MRSA strain 45): I
- Drug sensibility profile (MRSA strain 46): S
- Drug sensibility profile (MRSA strain 48): R
- Drug sensibility profile (MRSA strain 49): R
- Drug sensibility profile (MRSA strain 50): R
- Drug sensibility profile (MRSA strain 51): S

Structure (SMILES): CC[C@H]1OC(=O)[C@H](C)[C@@H](O[C@H]2C[C@@](C)(OC)[C@@H](O)[C@H](C)O2)[C@H](C)[C@@H](O[C@@H]2O[C@H](C)C[C@H](N(C)C)[C@H]2O)[C@](C)(O)C[C@@H](C)C(=O)[C@H](C)[C@@H](O)[C@]1(C)O [ERI, erythromycin]
- Drug sensibility profile (MRSA strain 1): S
- Drug sensibility profile (MRSA strain 2): R
- Drug sensibility profile (MRSA strain 3): S
- Drug sensibility profile (MRSA strain 4): S
- Drug sensibility profile (MRSA strain 5): R
- Drug sensibility profile (MRSA strain 6): R
- Drug sensibility profile (MRSA strain 7): R
- Drug sensibility profile (MRSA strain 8): R
- Drug sensibility profile (MRSA strain 9): R
- Drug sensibility profile (MRSA strain 10): S
- Drug sensibility profile (MRSA strain 12): R
- Drug sensibility profile (MRSA strain 13): S
- Drug sensibility profile (MRSA strain 14): R
- Drug sensibility profile (MRSA strain 15): S
- Drug sensibility profile (MRSA strain 16): R
- Drug sensibility profile (MRSA strain 17): S
- Drug sensibility profile (MRSA strain 18): S
- Drug sensibility profile (MRSA strain 21): R
- Drug sensibility profile (MRSA strain 23): R
- Drug sensibility profile (MRSA strain 24): S
- Drug sensibility profile (MRSA strain 25): S
- Drug sensibility profile (MRSA strain 26): S S S S S S S
- Drug sensibility profile (MRSA strain 27): S
- Drug sensibility profile (MRSA strain 28): R
- Drug sensibility profile (MRSA strain 29): S
- Drug sensibility profile (MRSA strain 30): I
- Drug sensibility profile (MRSA strain 31): R
- Drug sensibility profile (MRSA strain 34): I
- Drug sensibility profile (MRSA strain 35): I
- Drug sensibility profile (MRSA strain 36): S S S S S S S
- Drug sensibility profile (MRSA strain 40): R
- Drug sensibility profile (MRSA strain 41): S
- Drug sensibility profile (MRSA strain 42): S
- Drug sensibility profile (MRSA strain 43): I
- Drug sensibility profile (MRSA strain 44): I
- Drug sensibility profile (MRSA strain 45): R
- Drug sensibility profile (MRSA strain 46): S
- Drug sensibility profile (MRSA strain 48): R
- Drug sensibility profile (MRSA strain 49): I
- Drug sensibility profile (MRSA strain 50): R
- Drug sensibility profile (MRSA strain 51): S

Structure (SMILES): CCCCCCCCCCNCCN[C@@]1(C)C[C@H](O[C@H]2[C@H](Oc3c4cc5cc3Oc3ccc(cc3Cl)[C@@H](O)[C@@H](NC(=O)[C@@H](CC(C)C)NC)C(=O)N[C@@H](CC(N)=O)C(=O)N[C@H]5C(=O)N[C@H]3C(=O)N[C@H](C(=O)N[C@H](C(=O)O)c5cc(O)c(CNCP(=O)(O)O)c(O)c5-c5cc3ccc5O)[C@H](O)c3ccc(c(Cl)c3)O4)O[C@H](CO)[C@@H](O)[C@@H]2O)O[C@@H](C)[C@H]1O [Telavancin]
- Drug sensibility profile (MRSA strain 25): S
- Drug sensibility profile (MRSA strain 26): S
- Drug sensibility profile (MRSA strain 27): S
- Drug sensibility profile (MRSA strain 28): S
- Drug sensibility profile (MRSA strain 29): S
- Drug sensibility profile (MRSA strain 36): S
- Drug sensibility profile (MRSA strain 41): S
- Drug sensibility profile (MRSA strain 42): S
- Drug sensibility profile (MRSA strain 44): S
- Drug sensibility profile (MRSA strain 45): S
- Drug sensibility profile (MRSA strain 51): S

Structure (SMILES): CNC(C)C1CCC(N)C(OC2C(N)CC(N)C(OC3OCC(C)(O)C(NC)C3O)C2O)O1 (stereo not drawn) [GEN, gentamicin]
- Drug sensibility profile (MRSA strain 1): S
- Drug sensibility profile (MRSA strain 2): R
- Drug sensibility profile (MRSA strain 3): R
- Drug sensibility profile (MRSA strain 4): R
- Drug sensibility profile (MRSA strain 5): R
- Drug sensibility profile (MRSA strain 6): S
- Drug sensibility profile (MRSA strain 7): R
- Drug sensibility profile (MRSA strain 8): R
- Drug sensibility profile (MRSA strain 9): R
- Drug sensibility profile (MRSA strain 10): S
- Drug sensibility profile (MRSA strain 12): S
- Drug sensibility profile (MRSA strain 13): R
- Drug sensibility profile (MRSA strain 14): R
- Drug sensibility profile (MRSA strain 15): S
- Drug sensibility profile (MRSA strain 16): R
- Drug sensibility profile (MRSA strain 17): R
- Drug sensibility profile (MRSA strain 18): R
- Drug sensibility profile (MRSA strain 21): S
- Drug sensibility profile (MRSA strain 23): R
- Drug sensibility profile (MRSA strain 24): R
- Drug sensibility profile (MRSA strain 25): R
- Drug sensibility profile (MRSA strain 26): S S S S S S S
- Drug sensibility profile (MRSA strain 27): R
- Drug sensibility profile (MRSA strain 28): R
- Drug sensibility profile (MRSA strain 29): S
- Drug sensibility profile (MRSA strain 30): S
- Drug sensibility profile (MRSA strain 31): R
- Drug sensibility profile (MRSA strain 34): R
- Drug sensibility profile (MRSA strain 35): R
- Drug sensibility profile (MRSA strain 36): S S S S S S S
- Drug sensibility profile (MRSA strain 40): R
- Drug sensibility profile (MRSA strain 41): R
- Drug sensibility profile (MRSA strain 42): R
- Drug sensibility profile (MRSA strain 43): R
- Drug sensibility profile (MRSA strain 44): R
- Drug sensibility profile (MRSA strain 45): R
- Drug sensibility profile (MRSA strain 46): S
- Drug sensibility profile (MRSA strain 48): R
- Drug sensibility profile (MRSA strain 49): S
- Drug sensibility profile (MRSA strain 50): R
- Drug sensibility profile (MRSA strain 51): R

Structure (SMILES): Cc1cc(NS(=O)(=O)c2ccc(N)cc2)no1 [SUL, sulfamethoxazole]
- Drug sensibility profile (MRSA strain 1): R
- Drug sensibility profile (MRSA strain 2): S
- Drug sensibility profile (MRSA strain 3): S
- Drug sensibility profile (MRSA strain 4): S
- Drug sensibility profile (MRSA strain 5): S
- Drug sensibility profile (MRSA strain 6): S
- Drug sensibility profile (MRSA strain 7): S
- Drug sensibility profile (MRSA strain 8): S
- Drug sensibility profile (MRSA strain 9): S
- Drug sensibility profile (MRSA strain 10): S
- Drug sensibility profile (MRSA strain 12): S
- Drug sensibility profile (MRSA strain 13): S
- Drug sensibility profile (MRSA strain 14): S
- Drug sensibility profile (MRSA strain 15): S
- Drug sensibility profile (MRSA strain 16): S
- Drug sensibility profile (MRSA strain 17): I
- Drug sensibility profile (MRSA strain 18): S
- Drug sensibility profile (MRSA strain 21): S
- Drug sensibility profile (MRSA strain 23): S
- Drug sensibility profile (MRSA strain 24): S
- Drug sensibility profile (MRSA strain 25): S
- Drug sensibility profile (MRSA strain 26): S S S S S S S
- Drug sensibility profile (MRSA strain 27): S
- Drug sensibility profile (MRSA strain 28): S
- Drug sensibility profile (MRSA strain 29): S
- Drug sensibility profile (MRSA strain 30): S
- Drug sensibility profile (MRSA strain 31): S
- Drug sensibility profile (MRSA strain 34): S
- Drug sensibility profile (MRSA strain 35): S
- Drug sensibility profile (MRSA strain 36): S S S S S S S
- Drug sensibility profile (MRSA strain 40): S
- Drug sensibility profile (MRSA strain 41): S
- Drug sensibility profile (MRSA strain 42): S
- Drug sensibility profile (MRSA strain 43): S
- Drug sensibility profile (MRSA strain 44): S
- Drug sensibility profile (MRSA strain 45): S
- Drug sensibility profile (MRSA strain 46): S
- Drug sensibility profile (MRSA strain 48): S
- Drug sensibility profile (MRSA strain 49): S
- Drug sensibility profile (MRSA strain 50): S
- Drug sensibility profile (MRSA strain 51): S

Structure (SMILES): CCC[C@@H]1C[C@@H](C(=O)N[C@@H]([C@H]2O[C@H](SC)[C@H](O)[C@@H](O)[C@H]2O)[C@H](C)Cl)N(C)C1 [CLIND, clindamycin]
- Drug sensibility profile (MRSA strain 1): S
- Drug sensibility profile (MRSA strain 2): R
- Drug sensibility profile (MRSA strain 3): S
- Drug sensibility profile (MRSA strain 4): S
- Drug sensibility profile (MRSA strain 5): R
- Drug sensibility profile (MRSA strain 6): R
- Drug sensibility profile (MRSA strain 7): R
- Drug sensibility profile (MRSA strain 8): S
- Drug sensibility profile (MRSA strain 9): S
- Drug sensibility profile (MRSA strain 10): S
- Drug sensibility profile (MRSA strain 12): R
- Drug sensibility profile (MRSA strain 13): S
- Drug sensibility profile (MRSA strain 14): R
- Drug sensibility profile (MRSA strain 15): S
- Drug sensibility profile (MRSA strain 16): R
- Drug sensibility profile (MRSA strain 17): S
- Drug sensibility profile (MRSA strain 18): S
- Drug sensibility profile (MRSA strain 21): R
- Drug sensibility profile (MRSA strain 23): R
- Drug sensibility profile (MRSA strain 24): S
- Drug sensibility profile (MRSA strain 25): S
- Drug sensibility profile (MRSA strain 26): S S S S S S S
- Drug sensibility profile (MRSA strain 27): S
- Drug sensibility profile (MRSA strain 28): S
- Drug sensibility profile (MRSA strain 29): S
- Drug sensibility profile (MRSA strain 30): S
- Drug sensibility profile (MRSA strain 31): R
- Drug sensibility profile (MRSA strain 34): S
- Drug sensibility profile (MRSA strain 35): S
- Drug sensibility profile (MRSA strain 36): S S S S S S S
- Drug sensibility profile (MRSA strain 40): R
- Drug sensibility profile (MRSA strain 41): S
- Drug sensibility profile (MRSA strain 42): S
- Drug sensibility profile (MRSA strain 43): S
- Drug sensibility profile (MRSA strain 44): S
- Drug sensibility profile (MRSA strain 45): R
- Drug sensibility profile (MRSA strain 46): S
- Drug sensibility profile (MRSA strain 48): R
- Drug sensibility profile (MRSA strain 49): S
- Drug sensibility profile (MRSA strain 50): R
- Drug sensibility profile (MRSA strain 51): S
